Structures are written as SMILES.

This test deals with T1, human CCR6 (Homo sapiens, UniProt P51684).
T1 construct: expressed in transfected cells; host or cells: HEK-293
T1 sequence (P51684 1-374): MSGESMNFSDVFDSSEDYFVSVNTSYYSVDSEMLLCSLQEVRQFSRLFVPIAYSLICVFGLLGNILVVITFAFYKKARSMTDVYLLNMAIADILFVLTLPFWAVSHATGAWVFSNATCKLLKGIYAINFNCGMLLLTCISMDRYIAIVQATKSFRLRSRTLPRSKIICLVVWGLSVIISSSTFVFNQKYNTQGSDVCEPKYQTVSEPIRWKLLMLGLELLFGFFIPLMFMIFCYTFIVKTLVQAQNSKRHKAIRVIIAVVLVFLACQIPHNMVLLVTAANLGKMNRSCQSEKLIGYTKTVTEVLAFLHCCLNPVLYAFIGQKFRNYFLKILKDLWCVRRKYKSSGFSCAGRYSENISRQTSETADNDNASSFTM
Put plainly: FLIPR assay (inhibition of CCL20-induced calcium signal). Format: cell-based. The conditions noted are these: HEK-293 cells expressing human CCR6; mean values where determined several times; read-out: FLIPR IC50. The method, then:
FLIPR assay: The bioactivity of compounds is tested in a fluorometric imaging plate reader (FLIPR: Molecular Devices) using engineered HEK-293 cells expressing the human CCR6 (GenBank: AY242126). Frozen cells are plated on Poly-L-Lysine precoated 384-well plates 2 days prior to bioassay in DMEM medium supplemented with 10% FCS and 1% Penicillin-Streptomycin. […] This buffer, but lacking the dye, is also used for washing and compound dilution steps (assay buffer). Cells are washed free of excess dye with a wash-station (Biotek), leaving 40 microliter of assay buffer at the end. Cells were incubated for 15 minutes at room temperature in the dark, before adding compounds. Stock solutions of test compounds are made up at a concentration of 10 mM in DMSO, and serially diluted first in DMSO and then transferred in assay buffer to concentrations required for inhibition dose response curves. After a 45-minute incubation period in assay buffer at room temperature, 10 microliters of each compound dilution are transferred from a compound plate to the plate containing the recombinant cells in the FLIPR instrument according to the manufacturer's instructions. After cells and compounds were preincubated for 30 minutes at room temperature in the dark, 10 microliter agonist CCL20 (Peprotech) at a final concentration of 10 nM is added, again using the FLIPR instrument. Changes in fluorescence are monitored before and after addition of the test compounds and agonist. Emission peak values above base level after CCL20 addition are exported after base line subtraction.
The calculated IC50 values may fluctuate depending on the daily assay performance. Fluctuations of this kind are known to those skilled in the art.
Regarding `CC(C)c1ccc([C@](O)(c2cncc(N3CC4OCCC4C3=O)c2)C2(C)CN(C)C2)cc1` (mixture of isomers) [Example 210], the IC50 came out at 0.326 µM. As for `CC(=O)N1CC[C@H](c2nc(-c3cncc([C@@](O)(c4ccc(C(C)C)cc4)C4(C)CN(C)C4)c3)no2)[C@H](C)C1` (mixture of isomers) [Example 478, 1-[cis-4-(3-{5-[(R)-(1,3-Dimethyl-azetidin-3-yl)-hydroxy-(4-isopropyl-phenyl)-methyl]-pyridin-3-yl}-[1,2,4]oxadiazol-5-yl)-3-methyl-piperidin-1-yl]-ethanone], the IC50 was 0.0889 µM.

Consider `CC(C)c1ccc([C@](O)(c2cncc(N3C[C@H](C(C)(C)C)OC3=O)c2)C2(C)CN(C)C2)cc1` (single isomer, unassigned) [Example 167], for which the IC50 turned out to be 0.0669 µM. Take `CC(C)c1ccc([C@](O)(c2cncc([C@@H]3CCC(C)(O)C3)c2)C2(C)CN(C)C2)cc1` (single isomer, unassigned) [Example 297]: the IC50 amounted to 0.0935 µM. Take `CC(C)c1ccc([C@](O)(c2cncc(-c3noc(C4(C)CC(=O)N(C)C4)n3)c2)C2(C)CN(C)C2)cc1` (single isomer, unassigned) [Example 365]: the IC50 is 0.147 µM. Turning to `CC(C)c1ccc([C@](O)(c2cncc(-c3noc(C4(C)CC(=O)N(C)C4)n3)c2)C2(C)CN(C)C2)cc1` (single isomer, unassigned) [Example 366], the IC50 was determined as 0.165 µM. With `Cc1cc(C(C)(O)C#Cc2cncc([C@@](O)(c3ccc(C(C)C)cc3)C3(C)CN(C)C3)c2)nn1C` (single isomer, unassigned) [Example 401], the IC50 worked out at 0.117 µM. For `Cc1cc(C(C)(O)C#Cc2cncc([C@@](O)(c3ccc(C(C)C)cc3)C3(C)CN(C)C3)c2)nn1C` (single isomer, unassigned) [Example 402], the IC50 was determined as 0.0883 µM. Under `CC(C)c1ccc([C@](O)(c2cncc(C#CC(C)(O)c3ccn(C)n3)c2)C2(C)CN(C)C2)cc1` (single isomer, unassigned) [Example 404] stands 0.164 µM; under `CC(C)c1ccc([C@](O)(c2cncc(C#CC(C)(O)c3ccn(C)n3)c2)C2(C)CN(C)C2)cc1` (single isomer, unassigned) [Example 405], 0.102 µM. As for `CC(C)c1ccc([C@](O)(c2cncc(-c3noc(C4CC(=O)N(C)C4)n3)c2)C2(C)CN(C)C2)cc1` (single isomer, unassigned) [Example 509], the IC50 worked out at 0.208 µM.

As for `CCN1CC(c2nc(-c3cncc([C@@](O)(c4ccc(C(C)C)cc4)C4(C)CN(C)C4)c3)no2)CC1=O` (single isomer, unassigned) [Example 510], the IC50 came out at 0.184 µM. In the case of `CCN1CC(c2nc(-c3cncc([C@@](O)(c4ccc(C(C)C)cc4)C4(C)CN(C)C4)c3)no2)CC1=O` (single isomer, unassigned) [Example 511], the IC50 was determined as 0.133 µM. `CC(C)c1ccc([C@](O)(c2cncc(-c3noc(C4CC(=O)N(C(C)C)C4)n3)c2)C2(C)CN(C)C2)cc1` (single isomer, unassigned) [Example 512]: the IC50 came to 0.0611 µM. Consider `CC(C)c1ccc([C@](O)(c2cncc(-c3noc(C4CC(=O)N(C(C)C)C4)n3)c2)C2(C)CN(C)C2)cc1` (single isomer, unassigned) [Example 513], for which the IC50 was 0.101 µM. Under `CC(C)c1ccc([C@](O)(c2cncc(-c3noc(C4CCNC(=O)C4)n3)c2)C2(C)CN(C)C2)cc1` (single isomer, unassigned) [Example 515] stands 0.181 µM; under `CC(C)c1ccc([C@](O)(c2cncc(-c3noc(C4CCNC(=O)C4)n3)c2)C2(C)CN(C)C2)cc1` (single isomer, unassigned) [Example 516], 0.104 µM.

For `COc1cc(C(C)(O)C#Cc2cncc([C@@](O)(c3ccc(C(C)C)cc3)C3(C)CN(C)C3)c2)ncn1` (single isomer, unassigned) [Example 620], the IC50 was 0.0553 µM. As for `COc1cc(C(C)(O)C#Cc2cncc([C@@](O)(c3ccc(C(C)C)cc3)C3(C)CN(C)C3)c2)ncn1` (single isomer, unassigned) [Example 622], the IC50 amounted to 0.105 µM. As for `COc1nccc(C(C)(O)C#Cc2cncc([C@@](O)(c3ccc(C(C)C)cc3)C3(C)CN(C)C3)c2)n1` (single isomer, unassigned) [Example 623], the IC50 came out at 0.0449 µM. For the compound `COc1nccc(C(C)(O)C#Cc2cncc([C@@](O)(c3ccc(C(C)C)cc3)C3(C)CN(C)C3)c2)n1` (single isomer, unassigned) [Example 624], the IC50 is 0.0818 µM. As for `Cc1cc(C(C)(O)C#Cc2cncc([C@@](O)(c3ccc(C(C)C)cc3)C3(C)CN(C)C3)c2)nc(C)n1` (single isomer, unassigned) [Example 625], the IC50 amounted to 0.107 µM. The result for `Cc1cc(C(C)(O)C#Cc2cncc([C@@](O)(c3ccc(C(C)C)cc3)C3(C)CN(C)C3)c2)nc(C)n1` (single isomer, unassigned) [Example 626] reads 0.111 µM; that for `COc1cc(C(C)(O)C#Cc2cncc([C@@](O)(c3ccc(C(C)C)cc3)C3(C)CN(C)C3)c2)nc(OC)n1` (single isomer, unassigned) [Example 627], 0.0115 µM; that for `COc1cc(C(C)(O)C#Cc2cncc([C@@](O)(c3ccc(C(C)C)cc3)C3(C)CN(C)C3)c2)nc(OC)n1` (single isomer, unassigned) [Example 628], 0.0202 µM. Take `COc1nc(C)cc(C(C)(O)C#Cc2cncc([C@@](O)(c3ccc(C(C)C)cc3)C3(C)CN(C)C3)c2)n1` (single isomer, unassigned) [Example 629]: the IC50 was 0.0609 µM. For the compound `COc1cc(C(C)(O)C#Cc2cncc([C@@](O)(c3ccc(C(C)C)cc3)C3(C)CN(C)C3)c2)nc(C)n1` (single isomer, unassigned) [Example 630], the IC50 came to 0.0611 µM.

Turning to `COc1cc(C(C)(O)C#Cc2cncc([C@@](O)(c3ccc(C(C)C)cc3)C3(C)CN(C)C3)c2)nc(C)n1` (single isomer, unassigned) [Example 631], the IC50 stood at 0.0795 µM. The result for `CC(C)c1ccc([C@](O)(c2cncc(C#CC(C)(O)c3ccnc(C(F)(F)F)n3)c2)C2(C)CN(C)C2)cc1` (single isomer, unassigned) [Example 652] reads 0.0109 µM; that for `CC(C)c1ccc([C@](O)(c2cncc(C#CC(C)(O)c3ccnc(C(F)(F)F)n3)c2)C2(C)CN(C)C2)cc1` (single isomer, unassigned) [Example 653], 0.0101 µM. In the case of `CN1CC(F)(C(O)(c2ccc(OC(F)(F)F)cc2)c2cncc(N3CCCC3)c2)C1` (stereo not drawn) [Example 1, (3-Fluoro-1-methyl-azetidin-3-yl)-(5-pyrrolidin-1-yl-pyridin-3-yl)-(4-trifluoromethoxy-phenyl)-methanol], the 50% inhibitory concentration (IC50) is 0.114 µM. Take `CN1CC(C#N)(C(O)(c2ccc(OC(F)(F)F)cc2)c2cncc(N3CCCC3)c2)C1` (stereo not drawn) [Example 2, 3-[Hydroxy-(5-pyrrolidin-1-yl-pyridin-3-yl)-(4-trifluoromethoxy-phenyl)-methyl]-1-methyl-azetidine-3-carbonitrile]: the IC50 amounted to 0.147 µM.

In the case of `CCN1CC(C)([C@](O)(c2ccc(OC(F)(F)F)cc2)c2cncc(N3CCCC3)c2)C1` [Example 3, (R)-(1-Ethyl-3-methyl-azetidin-3-yl)-(5-pyrrolidin-1-yl-pyridin-3-yl)-(4-trifluoromethoxy-phenyl)-methanol], the IC50 is 0.028 µM. As to `CCCN1CC(C)([C@](O)(c2ccc(OC(F)(F)F)cc2)c2cncc(N3CCCC3)c2)C1` [Example 4], the IC50 worked out at 0.0362 µM. Take `CC(C)N1CC(C)([C@](O)(c2ccc(OC(F)(F)F)cc2)c2cncc(N3CCCC3)c2)C1` [Example 5]: the concentration for half-maximal inhibition (IC50) was determined as 0.0333 µM. The result for `CC1([C@](O)(c2ccc(OC(F)(F)F)cc2)c2cncc(N3CCCC3)c2)CN(CC2CC2)C1` [Example 6] reads 0.0472 µM. On to `CC1([C@](O)(c2ccc(OC(F)(F)F)cc2)c2cncc(N3CCCC3)c2)CN(C2CCC2)C1` [Example 7], for which the IC50 was 0.0543 µM.

Regarding `CC(C)CN1CC(C)([C@](O)(c2ccc(OC(F)(F)F)cc2)c2cncc(N3CCCC3)c2)C1` [Example 8], the IC50 is 0.11 µM. For `CC1([C@](O)(c2ccc(OC(F)(F)F)cc2)c2cncc(N3CCCC3)c2)CN(C2CC2)C1` [Example 9, (R)-(1-Cyclopropyl-3-methyl-azetidin-3-yl)-(5-pyrrolidin-1-yl-pyridin-3-yl)-(4-trifluoromethoxy-phenyl)-methanol], the IC50 was 0.0747 µM.
